# From ChEMBL document CHEMBL1147521 (Bioorg Med Chem Lett, 2004)
# How the values were obtained:
# [1] = molecular target: T1, Prostaglandin G/H synthase 1 (Ovis aries, UniProt P05979); test: In vitro inhibitory activity against prostaglandin G/H synthase 1 from ovine
# T1 sequence (P05979 whole entry): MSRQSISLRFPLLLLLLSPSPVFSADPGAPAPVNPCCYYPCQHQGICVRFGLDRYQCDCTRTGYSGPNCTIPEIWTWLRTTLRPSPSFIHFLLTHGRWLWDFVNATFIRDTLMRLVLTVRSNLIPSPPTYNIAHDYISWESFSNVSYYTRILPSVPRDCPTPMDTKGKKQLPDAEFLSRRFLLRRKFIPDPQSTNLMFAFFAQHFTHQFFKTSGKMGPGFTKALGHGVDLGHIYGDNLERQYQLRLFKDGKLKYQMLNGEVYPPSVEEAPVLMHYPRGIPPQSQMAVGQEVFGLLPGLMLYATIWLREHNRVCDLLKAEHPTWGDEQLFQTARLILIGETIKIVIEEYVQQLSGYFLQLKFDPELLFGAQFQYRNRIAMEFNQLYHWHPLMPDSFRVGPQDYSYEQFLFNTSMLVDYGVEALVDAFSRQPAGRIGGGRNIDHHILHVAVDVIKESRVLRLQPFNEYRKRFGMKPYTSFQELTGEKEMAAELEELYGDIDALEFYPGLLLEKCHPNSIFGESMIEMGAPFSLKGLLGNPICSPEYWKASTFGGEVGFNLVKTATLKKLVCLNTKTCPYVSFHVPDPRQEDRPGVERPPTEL
# [2] = molecular target: T2, Prostaglandin G/H synthase 2 (Ovis aries, UniProt P79208); test: In vitro inhibitory activity against prostaglandin G/H synthase 2 from ovine
# T2 sequence (P79208 whole entry): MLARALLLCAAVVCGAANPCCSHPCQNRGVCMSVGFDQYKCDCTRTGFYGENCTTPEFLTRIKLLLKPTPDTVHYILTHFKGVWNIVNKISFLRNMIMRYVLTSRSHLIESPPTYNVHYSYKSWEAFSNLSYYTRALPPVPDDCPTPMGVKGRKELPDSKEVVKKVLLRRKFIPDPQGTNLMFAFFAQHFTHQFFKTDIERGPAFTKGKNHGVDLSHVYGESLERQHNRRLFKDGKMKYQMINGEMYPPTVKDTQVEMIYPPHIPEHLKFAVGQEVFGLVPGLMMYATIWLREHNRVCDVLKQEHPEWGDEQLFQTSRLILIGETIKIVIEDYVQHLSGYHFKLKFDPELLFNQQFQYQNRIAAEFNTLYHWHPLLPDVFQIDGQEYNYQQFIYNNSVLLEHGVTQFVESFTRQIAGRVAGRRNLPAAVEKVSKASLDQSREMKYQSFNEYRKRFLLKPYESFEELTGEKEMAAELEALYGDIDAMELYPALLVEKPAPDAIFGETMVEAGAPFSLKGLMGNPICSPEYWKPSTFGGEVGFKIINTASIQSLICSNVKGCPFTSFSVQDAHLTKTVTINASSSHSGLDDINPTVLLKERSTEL
IC50 [1],IC50 [2],SMILES
> 100 µM,> 100 µM,CS(=O)(=O)c1ccc(C2=C(c3ccc(S(N)(=O)=O)cc3)C(=O)OC2)cc1
31.5 µM,11 µM,CS(=O)(=O)c1ccc(C2=C(c3ccc(S(=O)(=O)N=[N+]=[N-])cc3)C(=O)OC2)cc1
> 100 µM,3.1 µM,CS(=O)(=O)c1ccc(C2=C(c3ccc(S(=O)(=O)N=[N+]=[N-])cc3)COC2=O)cc1
> 100 µM,0.05 µM,CC(=O)NS(=O)(=O)c1ccc(C2=C(c3ccc(S(C)(=O)=O)cc3)C(=O)OC2)cc1
> 100 µM,> 100 µM,CS(=O)(=O)c1ccc(C2=C(c3ccc(S(N)(=O)=O)cc3)COC2=O)cc1
3.2 µM,4.6 µM,CC(=O)NS(=O)(=O)c1ccc(C2=C(c3ccc(S(C)(=O)=O)cc3)COC2=O)cc1

SMILES,IC50 [1],IC50 [2]
CS(=O)(=O)c1ccc(C2=C(c3ccccc3)C(=O)OC2)cc1 [ROFECOXIB],,> 0.43 µM
